{"source": "patent US20220315895A1", "about": "“METHODS OF MAKING OLIGOPOTENT AND UNIPOTENT PRECURSORS” (Transfusion Health, LLC, priority 2019, published 2022)", "key": {"[1]": {"system": "CD34+ cells isolated from donor peripheral blood", "test": "Enhancement of HSCs derived from non-mobilized peripheral blood with compounds of Formula I (Example 33)", "assay_type": "cell-based", "settings": "normalized fold change days 2 to 7", "protocol": "CD34+ cells were isolated from donor peripheral blood. Standard buffy coat separation using ficoll paque was performed. Cells were pelleted and incubated with unlabeled CD64 antibody. Cells then underwent negative depletion using biotinylated CD2, CD3, CD4, CD5, CD8, CD11b, CD14, CD16, CD19, CD20, CD45RA, CD56, CD235 (in some examples CD15, CD25 and other lineage specific antibodies may also be used). Cells which bind these antibodies are depleted using streptavidin beads. The enriched progenitor pool then undergoes cell sorting for CD34+.\nIsolated CD34+ cells were incubated in an in vitro culture media of Alpha MEM without phenol red with 10% (v/v) heat inactivated fetal bovine serum (FBS). When testing compounds of Formula I, two internal controls were used: a positive control (+SF conditions) and a baseline control (i.e. basic conditions (“cytokines only”)). The media components and concentrations used for the compounds tested are described in [0563] Table 2. The culture also included an antibiotic solution that includes penicillin, streptomycin, and amphotericin B to avoid contamination. Controls were included because the amount of expansion in samples obtained varies from individual to individual.\n(§1) Cultures were incubated at […] (controlled by nitrogen) and 5% CO2.\n(§2) Small molecule components were added separately and fresh each time the media needs to be refreshed. Cytokines can be stored together. Media renewal should occur at least every few days.\n(§3) On the days indicated one-half of the volume of the cell culture was removed for data analysis (flow cytometry using a BD FACS ARIA II). The culture volume was replenished with fresh media according to the conditions tested. The data reported accounts for the dilution factor introduced in this procedure.\nSeparate experiments were performed for each compound tested (Compound 1.001-1.023).\n(§4) Table 3, below, summarizes the relative expansive effect of Compound 1.001 to 1.023 (sample compounds) at the indicated concentration. The data in Table 3 is reported as the relative expansive effect. The relative expansive effect is a normalized value of the fold changes shown in each of FIG. 1-FIG. 23. It is calculated as shown below: […]"}, "[2]": {"system": "CD34+ cells from cord blood", "test": "Expansion of cord blood CD34+ cells, seven-day culture (Example 35)", "assay_type": "cell-based, human", "settings": "normalized fold change days 1 to 7", "protocol": "CD34+ cells from cord blood were purchased from STEMCELL Technologies. Primary human CD34+ cells were isolated from cord blood samples using positive immunomagnetic separation techniques. Cells were thawed and gradually brought to room temperature. Samples were washed, then placed in overnight culture in StemSpan with 100 ng/ml each of FLT3L, TPO, SCF, and TL-6. Eighteen to twenty-four hours later (day 1), cells were counted and immunophenotyped (flow cytometry on an Invitrogen Attune N×T cytometer).\nApproximately 1000 live cells were plated into each well of 96-well plates; exact cell numbers dispensed per well were quantified with flow cytometry for later calculations.\nMedia for testing compounds of Formula I was prepared using Alpha MEM without phenol red, 10% (v/v) heat inactivated fetal bovine serum. Culture conditions also included an antibiotic solution that includes penicillin, streptomycin, and amphotericin B to avoid contamination. Additional media components and concentrations used for the compounds tested are described in Table 5.\nAll incubations for this experiment took place at 3% oxygen (controlled by nitrogen) and 5% CO2. Following seven days of culture, cells from wells were collected and phenotypes were analyzed (flow cytometry on an Invitrogen Attune N×T cytometer).\nas §4, with “6” for “3,”, “the screened compounds” for “Compound 1.001 to 1.023 (sample compounds)”, “6” for “3”, “the figures.” for “FIG. 1-FIG. 23.”"}, "[3]": {"system": "hematopoietic stem cells derived from cord blood", "test": "Enhancement of HSCs derived from cord blood with Compound 1.008 (Example 34)", "assay_type": "cell-based", "protocol": "A frozen cord blood sample was thawed and gradually brought to room temperature. Thawed cord blood was incubated in an in vitro culture media of Alpha MEM without phenol red, 10% (v/v) heat inactivated fetal bovine serum (FBS). Four samples were tested: Base conditions, +SF Conditions, +1.008 Conditions, and +1.008/+ER conditions. The components included in each condition is described in [0574] Table 4. Each condition tested also included an antibiotic solution that includes penicillin, streptomycin, and amphotericin B to avoid contamination.\nas §1, §2\nas §3, with “varying amounts” for “one-half of the volume”, “II) and to avoid overcrowding of cells.” for “II).”"}, "[4]": {"settings": "+1.008 conditions (Compound 1.008 250 nM), 19 days in culture"}}, "data": [{"compound": "CC(=O)Nc1ccc2c(c1)C(OC(C)=O)c1ccccc1-2", "note": "(stereo not shown) [Compound 1.022, 2-acetamido-9H-fluoren-9-yl acetate]", "values": [{"measurement": "CD90 effect (relative expansive effect on CD34+/CD133+/CD90+ cells)", "setting": "[1]; sample compound 32 μM", "value": "+++++ (1.25 ≤ x)"}, {"measurement": "CD133 effect (relative expansive effect on CD34+/CD133+ cells)", "setting": "[1]; sample compound 32 μM", "value": "+++ (0.55 ≤ x < 0.9)"}, {"measurement": "CD90 effect (relative expansive effect on CD34+/CD133+/CD90+ cells)", "setting": "[2]; sample compound 8 μM", "value": "++ (1.44 ≤ x < 1.8)"}, {"measurement": "CD133 effect (relative expansive effect on CD34+/CD133+ cells)", "setting": "[2]; sample compound 8 μM", "value": "+++ (1.8 ≤ x < 2.16)"}]}, {"compound": "CC(=O)Nc1ccc2c(c1)C(=O)c1ccccc1-2", "note": "[Compound 1.009, N-(9-oxo-9H-fluoren-2-yl)acetamide]", "values": [{"measurement": "CD90 effect (relative expansive effect on CD34+/CD133+/CD90+ cells)", "setting": "[1]; sample compound 2 μM", "value": "+++++ (1.25 ≤ x)"}, {"measurement": "CD133 effect (relative expansive effect on CD34+/CD133+ cells)", "setting": "[1]; sample compound 2 μM", "value": "+++++ (1.25 ≤ x)"}, {"measurement": "CD90 effect (relative expansive effect on CD34+/CD133+/CD90+ cells)", "setting": "[2]; sample compound 0.5 μM", "value": "+++ (1.8 ≤ x < 2.16)"}, {"measurement": "CD133 effect (relative expansive effect on CD34+/CD133+ cells)", "setting": "[2]; sample compound 0.5 μM", "value": "+++ (1.8 ≤ x < 2.16)"}]}, {"compound": "CC(C)(C)C(=O)Nc1ccc2c(c1)/C(=N/O)c1ccccc1-2", "note": "[Compound 1.013, N-(9-(hydroxyimino)-9H-fluoren-2-yl)pivalamide]", "values": [{"measurement": "CD90 effect (relative expansive effect on CD34+/CD133+/CD90+ cells)", "setting": "[1]; sample compound 4 μM", "value": "+++ (0.55 ≤ x < 0.9)"}, {"measurement": "CD133 effect (relative expansive effect on CD34+/CD133+ cells)", "setting": "[1]; sample compound 4 μM", "value": "+++ (0.55 ≤ x < 0.9)"}, {"measurement": "CD90 effect (relative expansive effect on CD34+/CD133+/CD90+ cells)", "setting": "[2]; sample compound 2 μM", "value": "+++++ (2.52 ≤ x)"}, {"measurement": "CD133 effect (relative expansive effect on CD34+/CD133+ cells)", "setting": "[2]; sample compound 2 μM", "value": "++++ (2.16 ≤ x < 2.52)"}]}, {"compound": "CCOC1c2ccccc2-c2ccc(NC(=O)C(C)(C)C)cc21", "note": "(stereo not shown) [Compound 1.023, N-(9-ethoxy-9H-fluoren-2-yl)pivalamide]", "values": [{"measurement": "CD90 effect (relative expansive effect on CD34+/CD133+/CD90+ cells)", "setting": "[1]; sample compound 32 μM", "value": "++ (0.2 ≤ x < 0.55)"}, {"measurement": "CD133 effect (relative expansive effect on CD34+/CD133+ cells)", "setting": "[1]; sample compound 32 μM", "value": "+ (x < 0.2)"}, {"measurement": "CD90 effect (relative expansive effect on CD34+/CD133+/CD90+ cells)", "setting": "[2]; sample compound 8 μM", "value": "++ (1.44 ≤ x < 1.8)"}, {"measurement": "CD133 effect (relative expansive effect on CD34+/CD133+ cells)", "setting": "[2]; sample compound 8 μM", "value": "++ (1.44 ≤ x < 1.8)"}]}, {"compound": "ER50891 [reference compound]", "values": [{"measurement": "fold increase levels of HSC populations on addition of ER50891", "setting": "[3]; ER50891 100 nM added to Compound 1.008 250 nM (+1.008/+ER conditions), compared with +1.008 alone", "value": "even further improved"}]}, {"compound": "CC(C)(C)C(=O)Nc1cc2c(cc1O)-c1ccccc1C2=O", "note": "[Compound 1.014, N-(3-hydroxy-9-oxo-9H-fluoren-2-yl)pivalamide]", "values": [{"measurement": "CD90 effect (relative expansive effect on CD34+/CD133+/CD90+ cells)", "setting": "[1]; sample compound 8 μM", "value": "+++ (0.55 ≤ x < 0.9)"}, {"measurement": "CD133 effect (relative expansive effect on CD34+/CD133+ cells)", "setting": "[1]; sample compound 8 μM", "value": "++ (0.2 ≤ x < 0.55)"}, {"measurement": "CD90 effect (relative expansive effect on CD34+/CD133+/CD90+ cells)", "setting": "[2]; sample compound 8 μM", "value": "++ (1.44 ≤ x < 1.8)"}, {"measurement": "CD133 effect (relative expansive effect on CD34+/CD133+ cells)", "setting": "[2]; sample compound 8 μM", "value": "++ (1.44 ≤ x < 1.8)"}]}, {"compound": "CC(C)(C)C(=O)Nc1ccc2c(c1)C(=O)c1c(O)cccc1-2", "note": "[Compound 1.006]", "values": [{"measurement": "CD90 effect (relative expansive effect on CD34+/CD133+/CD90+ cells)", "setting": "[1]; sample compound 1 μM", "value": "++++ (0.9 ≤ x < 1.25)"}, {"measurement": "CD133 effect (relative expansive effect on CD34+/CD133+ cells)", "setting": "[1]; sample compound 1 μM", "value": "+++ (0.55 ≤ x < 0.9)"}, {"measurement": "CD90 effect (relative expansive effect on CD34+/CD133+/CD90+ cells)", "setting": "[2]; sample compound 2 μM", "value": "++ (1.44 ≤ x < 1.8)"}, {"measurement": "CD133 effect (relative expansive effect on CD34+/CD133+ cells)", "setting": "[2]; sample compound 2 μM", "value": "++ (1.44 ≤ x < 1.8)"}]}, {"compound": "CC(C)(C)C(=O)Nc1ccc2c(c1)C(=O)c1cc(N)ccc1-2", "note": "[Compound 1.008, N-(7-amino-9-oxo-9H-fluoren-2-yl)pivalamide]", "values": [{"measurement": "CD90 effect (relative expansive effect on CD34+/CD133+/CD90+ cells)", "setting": "[1]; sample compound 4 μM", "value": "+++++ (1.25 ≤ x)"}, {"measurement": "CD133 effect (relative expansive effect on CD34+/CD133+ cells)", "setting": "[1]; sample compound 4 μM", "value": "+++ (0.55 ≤ x < 0.9)"}, {"measurement": "fold increase in CD34+/CD133+ cells from day 2", "setting": "[3]; [4]", "value": "greater than 50 fold"}, {"measurement": "fold increase in CD34+/CD133+/CD90+ cells from day 2", "setting": "[3]; [4]", "value": "~20", "unit": "fold"}, {"measurement": "fold increase in CD34+/CD133+/CD90+/CD38low/− cells from day 2", "setting": "[3]; [4]", "value": "> 12", "unit": "fold"}, {"measurement": "fold increase in CD34+ cells from day 2", "setting": "[3]; +1.008 conditions (Compound 1.008 250 nM, TPO, SCF, FLT3L), 19 days in culture", "value": "greater than 50 fold"}, {"measurement": "CD90 effect (relative expansive effect on CD34+/CD133+/CD90+ cells)", "setting": "[2]; sample compound 8 μM", "value": "++++ (2.16 ≤ x < 2.52)"}, {"measurement": "CD133 effect (relative expansive effect on CD34+/CD133+ cells)", "setting": "[2]; sample compound 8 μM", "value": "++++ (2.16 ≤ x < 2.52)"}]}, {"compound": "CC(C)(C)C(=O)Nc1ccc2c(c1)C(=O)c1ccccc1-2", "note": "[Compound 1.005, N-(9-oxo-9H-fluoren-2-yl)pivalamide]", "values": [{"measurement": "CD90 effect (relative expansive effect on CD34+/CD133+/CD90+ cells)", "setting": "[1]; sample compound 0.125 μM", "value": "+++ (0.55 ≤ x < 0.9)"}, {"measurement": "CD133 effect (relative expansive effect on CD34+/CD133+ cells)", "setting": "[1]; sample compound 0.125 μM", "value": "++ (0.2 ≤ x < 0.55)"}, {"measurement": "CD90 effect (relative expansive effect on CD34+/CD133+/CD90+ cells)", "setting": "[2]; sample compound 0.5 μM", "value": "++ (1.44 ≤ x < 1.8)"}, {"measurement": "CD133 effect (relative expansive effect on CD34+/CD133+ cells)", "setting": "[2]; sample compound 0.5 μM", "value": "++ (1.44 ≤ x < 1.8)"}]}]}
